# Data reported in US11987568B2, “Allosteric inhibitor of WEE1 kinase” (H. LEE MOFFITT CANCER CENTER AND RESEARCH INSTITUTE, INC., priority 2018, dated 2024).
# “And” between values parts separate entries of the source, which are not always exact repeats. Equal values may be shown once.
# Legend:
# [1] = tested on: LAPC4 cells; test: LAPC4 cell proliferation, trypan blue exclusion assay; format: cell-based; conditions: Homo sapiens, 96 hr, viable cells by trypan blue exclusion
# Source text: FIGS. 2A-2B show identification of 3 distinct types of inhibitors. […] In addition, the lysates were also subjected to by immunoblotting with […]-Cdc2 or actin antibodies (middle and bottom panels). […] The number vehicle treated cells were used as control and percent of surviving cells were plotted. […] The number of vehicle treated cells were used as control and percent of surviving cells were plotted. […] The number vehicle treated cells were used as control and percent of surviving cells were plotted. 7 of these epigenetic inhibitors in various assays such as cell proliferation assay, an in vitro kinase assay were performed and WEE1 autophosphorylation in vivo was determined. Prostate cancer derived LAPC4 cells were treated with inhibitors and its effect on cell proliferation was examined.
# [2] = tested on: histone H2B Tyr37-phopshorylation (pY37-H2B); test: WEE1 epigenetic activity in cells: pY37-H2B immunoprecipitation/immunoblot; format: cell-based, human; conditions: LNCaP cells
# Source text: FIGS. 2A-2B show identification of 3 distinct types of inhibitors. […] In addition, the lysates were also subjected to by immunoblotting with pY15-Cdc2 or actin antibodies (middle and bottom panels). […] The number vehicle treated cells were used as control and percent of surviving cells were plotted.
# FIGS. 4A-4B show structures of ‘hits’ identified in WEE1 epigenetic inhibitor screen. […] The reaction mix was then subjected to immunoprecipitated with WEE1 antibodies, followed by immunoblotting with pTyr antibodies. […] In addition, the lysates were also subjected to immunoblotting with actin antibodies (bottom panel).
# FIGS. 7A-7C show identification of WEIN-159 as a potent WEE1 epigenetic inhibitor. […] In addition, lysates were immunoprecipitated with pY37-H2B antibodies, followed by immunoblotting with H2B antibodies (middle panel). […] The lysates were also subjected to immunoblotting with pY15-Cdc2 antibodies and were immunoprecipitated with pY37-H2B antibodies, followed by immunoblotting with H2B antibodies (middle panels). In addition, the lysates were also subjected to immunoblotting with H2B antibodies (bottom panel). […] The lysates were also subjected to immunoblotting with pY15-Cdc2 antibodies and were immunoprecipitated with pY37-H2B antibodies, followed by immunoblotting with H2B antibodies (middle panels). In addition, the lysates were also subjected to immunoblotting with actin antibodies (bottom panel).
# Identification of compounds with WEE1 epigenetic inhibitory role: 14 ‘hits’ that were identified in the screen are shown in FIG. 1. These compounds were further tested for their ability to inhibit WEE1 epigenetic activity. Prostate cancer derived LNCaP cells were treated with 3 uM of compounds for 48 hours. Cells were harvested, lysates were prepared, and WEE1 epigenetic activity was detected by determining histone H2B Tyr37-phopshorylation (pY37-H2B). Lysates were also assessed for WEE1 cell cycle inhibitory activity by determining Cdc2 Tyr15-phosphorylation (pY15-Cdc2). […] These are named as ‘Cell Cycle’ inhibitors. […] These compounds are the ‘Epigenetic’ inhibitors.
# [3] = tested on: 5hmC levels; test: 5-hmC slot blot of genomic DNA; format: cell-based; conditions: 10 uM, 16 hr
# Experimental: WM66 cells (FIG. 5A) or primary melanocytes (FIG. 5B) were treated with vehicle or compounds (10 uM) for 16 hr. Total RNA was isolated followed by qRT-PCR with IDH2 and actin primers. FIG. 5C indicated cells were treated with vehicle or compounds (10 uM) for 16 hr. Total genomic DNA was isolated, slot-blotted onto a nitrocellulose membrane, followed by blotting with 5-hmC antibodies (top panels). Blots were also stained with methylene blue, to determine equal loading of DNA (bottom panel).
# Identification of 55152 (18-B3) scaffold as a WEE1 epigenetic inhibitor: Two major hits, 367416 (16-G9) and 55152 (18-B3) were taken up for further characterization. […] Accordingly, melanoma cell line WM66 and primary melanocytes were treated with inhibitors and IDH2 mRNA levels were measure by real time PCR.
# [4] = Plasma Stability, Human; format: in vitro ADME
# Experimental: ADME studies with 55152 (18-B3) and 367416 (16-G9): The solubility, microsome stability and plasma stability of these two compounds were also determined (Table 2).
# [5] = target: T1, Wee1 KD (Homo sapiens, UniProt P30291); test: Differential Scanning Fluorimetry (DSF), Wee1 KD; format: binding; conditions: kinase domain purified from HEK293T cells
# T1 construct: WEE1 & WEE2 (as control) kinase domains from mammalian cells (HEK293T cells) were purified
# Experimental: (§1) Binding study of WEE1 epigenetic inhibitors: To identify the precise binding region/domain of WEE1 epigenetic inhibitors, WEE1 & WEE2 (as control) kinase domains from mammalian cells (HEK293T cells) were purified. The binding of inhibitors was assessed using Differential Scanning Fluorimetry (DSF).
# [6] = target: T2, Wee2 KD (Homo sapiens, UniProt P0C1S8); test: Differential Scanning Fluorimetry (DSF), Wee2 KD; format: binding; conditions: kinase domain purified from HEK293T cells
# T2 construct: WEE1 & WEE2 (as control) kinase domains from mammalian cells (HEK293T cells) were purified
# Experimental: as §1
# [7] = target: full length human WEE1 kinase (Homo sapiens, UniProt P30291); test: ELISA based assay: WEE1 phosphorylation of biotinylated H2B peptide spanning Tyr37; format: biochemical; design: A full length human WEE1 kinase that was enzymatically active was purified from insect cell; conditions: Table 1; several values in a cell are repeat determinations
# Source text: Designing of a Novel inhibitor Screening Platform: […] A full length human WEE1 kinase that was enzymatically active was purified from insect cell. […] NCI diversity set compound library ( 1600 compounds) was used for the screening.
# Sequence of full length human WEE1 kinase (P30291 whole entry): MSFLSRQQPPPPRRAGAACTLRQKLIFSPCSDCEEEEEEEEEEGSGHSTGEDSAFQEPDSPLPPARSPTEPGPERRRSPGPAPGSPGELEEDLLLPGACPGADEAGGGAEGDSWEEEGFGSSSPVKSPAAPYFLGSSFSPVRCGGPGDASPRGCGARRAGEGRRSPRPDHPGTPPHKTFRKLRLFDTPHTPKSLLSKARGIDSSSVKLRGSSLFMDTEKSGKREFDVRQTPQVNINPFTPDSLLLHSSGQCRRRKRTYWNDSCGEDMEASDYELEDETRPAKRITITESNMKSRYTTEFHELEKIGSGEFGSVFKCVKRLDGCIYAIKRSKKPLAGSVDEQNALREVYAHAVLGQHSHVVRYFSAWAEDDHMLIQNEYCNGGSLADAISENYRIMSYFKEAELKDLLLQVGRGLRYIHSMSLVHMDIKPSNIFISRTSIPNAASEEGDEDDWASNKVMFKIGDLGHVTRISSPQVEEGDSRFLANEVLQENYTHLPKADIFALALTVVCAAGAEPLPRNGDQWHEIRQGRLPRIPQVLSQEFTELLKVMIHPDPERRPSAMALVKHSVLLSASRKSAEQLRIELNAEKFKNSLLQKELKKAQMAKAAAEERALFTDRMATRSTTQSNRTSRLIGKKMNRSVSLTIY
# T1 sequence (P30291 299-569): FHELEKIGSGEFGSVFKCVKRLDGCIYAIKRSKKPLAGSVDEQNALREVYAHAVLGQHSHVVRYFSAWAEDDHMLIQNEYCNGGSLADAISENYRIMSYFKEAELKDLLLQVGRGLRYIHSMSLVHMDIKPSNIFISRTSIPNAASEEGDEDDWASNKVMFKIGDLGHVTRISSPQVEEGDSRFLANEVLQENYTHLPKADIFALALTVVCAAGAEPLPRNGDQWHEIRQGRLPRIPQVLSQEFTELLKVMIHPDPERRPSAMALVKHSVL
# T2 sequence (P0C1S8 212-486): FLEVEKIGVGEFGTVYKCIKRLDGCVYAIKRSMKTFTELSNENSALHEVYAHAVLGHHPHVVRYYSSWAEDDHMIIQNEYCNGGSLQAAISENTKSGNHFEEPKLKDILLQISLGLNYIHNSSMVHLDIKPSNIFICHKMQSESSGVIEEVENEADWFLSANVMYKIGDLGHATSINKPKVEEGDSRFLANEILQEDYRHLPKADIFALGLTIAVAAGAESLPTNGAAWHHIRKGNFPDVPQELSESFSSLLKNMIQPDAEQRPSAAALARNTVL
structure (smiles),measurement,setting,value
"Nc1ccc(NC(=O)c2ccc(C(=O)Nc3ccc(N)cc3)cc2)cc1 [SG5-061, N^1,N^4-bis(4-aminophenyl)terephthalamide]",IC50,[1],1000 nM
same,H2B Tyr37-phosphorylation (pY37-H2B),"[2]; 3 uM, 48 hours (FIG. 2A)",specifically suppressed H2B Tyr37-phosphotylation
same,H2B Tyr37-phosphorylation,"[2]; 10 μM, 12 hours (FIG. 4B)",complete loss of H2B Tyr37-phosphorylation
same,5hmC levels,[3],Corresponding increase in 5hmC levels
same,Plasma Stability % remaining @ 3 hrs Human,[4],58.57%
same,ΔTm for Wee1 KD (° C.),[5],0.5 °C
same,ΔTm for Wee1 KD (° C.),[5]; listed as 55152 (18-B3),0.8 °C
same,ΔTm for Wee2 KD (° C.),[6],0.1 °C
same,ΔTm for Wee2 KD (° C.),[6]; listed as 55152 (18-B3),1.1 °C
same,ELISA Inhibition (%),[7],112% and 81% and 82% and 87% and 83% and 100% and 106%
